Values of other authors, collected in publication PMC8295177 (Cancer discovery, 2021).

Legend:
[1] = system: unselected stage IV NSCLC; conditions: second-line monotherapy; cited from earlier work
[2] = system: EGFRex20ins mutants; conditions: cited from earlier work

## CC(=O)O[C@@]12CO[C@@H]1C[C@H](O)[C@@]1(C)C(=O)[C@H](O)C3=C(C)[C@@H](OC(=O)[C@H](O)[C@@H](NC(=O)OC(C)(C)C)c4ccccc4)C[C@@](O)([C@@H](OC(=O)c4ccccc4)[C@H]21)C3(C)C [Docetaxel]
[1]
  median duration of response: approximately 6 months

## C=CC(=O)N1CCC(Oc2cc3c(Nc4ccc(Cl)c(Cl)c4F)ncnc3cc2OC)CC1 [Poziotinib]
[2]
  inhibition of EGFRex20ins mutants in vitro: potent inhibition
